Results as given in ChEMBL document CHEMBL4196033, “Potent hydrazone derivatives targeting esophageal cancer cells” (Eur J Med Chem, 2018).
The source made the active and inactive calls. The calls are words filed in the database; no cut-off is given here.

Key:
ECa-109 cell line [1] = assay: Induction of apoptosis in human EC109 cells assessed as live cells at 4 uM after 48 hrs by Annexin V-FITC/propidium iodide staining based flow cytometry (reference value: 95.2 to 99%); format: functional
ECa-109 cell line [2] = assay: Induction of ROS generation in human EC109 cells at 2 uM after 24 hrs by DCFH-DA staining based flow cytometry relative to control; format: functional
MGC-803 = assay: Antiproliferative activity against human MGC803 cells after 72 hrs by MTT assay; format: functional, cell-based; settings: MGC-803, 72 h
EC9706 [3] = assay: Induction of apoptosis in human EC9706 cells assessed as late apoptotic cells at 4 uM after 48 hrs in presence of caspase inhibitor Z-VAD-FMK by Annexin V-FITC/propidium iodide staining based flow cytometry (reference value: 1.27%); format: functional
ECa-109 cell line [4] = assay: Induction of apoptosis in human EC109 cells assessed as live cells at 4 uM after 48 hrs in presence of caspase inhibitor Z-VAD-FMK by Annexin V-FITC/propidium iodide staining based flow cytometry (reference value: 96.2%); format: functional
GES1 = assay: Antiproliferative activity against human GES-1 cells after 72 hrs by MTT assay; format: cell-based; settings: GES1, 72 h
ECa-109 cell line [5] = assay: Induction of apoptosis in human EC109 cells assessed as late apoptotic cells at 4 uM after 48 hrs in presence of caspase inhibitor Z-VAD-FMK by Annexin V-FITC/propidium iodide staining based flow cytometry (reference value: 0.01%); format: functional
ECa-109 cell line [6] = assay: Effect on Prxs-5 protein expression in human EC109 cells at 2 to 8 uM after 48 hrs by Western blot analysis; format: functional, cell-based
EC9706 [7] = assay: Induction of ROS generation in human EC9706 cells at 2 to 4 uM after 24 hrs in presence of anti-oxidant NAC by DCFH-DA staining based flow cytometry; format: functional, cell-based
ECa-109 cell line [8] = assay: Antiproliferative activity against human EC109 cells after 72 hrs by MTT assay; format: functional, cell-based; settings: ECa-109, 72 h

Question: Which Activity (ECa-109 cell line [1]) does the source give for `COc1ccc(/C=N/NC(=O)c2cccc(S(=O)(=O)N3CCOCC3)c2)c(O)c1` here?
Answer: 27.2 - 63.6%

Question: And the “fold change (FC)” value (ECa-109 cell line [2])?
Answer: 1.81

Question: What about the IC50 (MGC-803) of the same compound?
Answer: 2.07 µM

Question: What about the Activity (EC9706 [3]) of the same compound?
Answer: 20.7%

Question: And the Activity (ECa-109 cell line [4])?
Answer: 49%

Question: What about the IC50 (GES1) of the same compound?
Answer: 14.4 µM

Question: What about the Activity (ECa-109 cell line [5]) of the same compound?
Answer: 21.1%

Question: And the Activity (ECa-109 cell line [6])?
Answer: Active

Question: And the Activity (EC9706 [7])?
Answer: inactive

Question: What about the IC50 (ECa-109 cell line [8]) of the same compound?
Answer: 2.79 µM
